The source made the active and inactive calls. The rule behind the calls is not given here.
Legend:
[1] = molecular target: T1, Protein O-GlcNAcase (Mus musculus) (UniProt Q9EQQ9); assay: Inhibition of OGA in mouse NIH/3T3 cells assessed as increase in O-GlcNAcylation at 20 uM after 24 hrs by Western blot analysis; type: cell-based
T1 sequence (whole entry): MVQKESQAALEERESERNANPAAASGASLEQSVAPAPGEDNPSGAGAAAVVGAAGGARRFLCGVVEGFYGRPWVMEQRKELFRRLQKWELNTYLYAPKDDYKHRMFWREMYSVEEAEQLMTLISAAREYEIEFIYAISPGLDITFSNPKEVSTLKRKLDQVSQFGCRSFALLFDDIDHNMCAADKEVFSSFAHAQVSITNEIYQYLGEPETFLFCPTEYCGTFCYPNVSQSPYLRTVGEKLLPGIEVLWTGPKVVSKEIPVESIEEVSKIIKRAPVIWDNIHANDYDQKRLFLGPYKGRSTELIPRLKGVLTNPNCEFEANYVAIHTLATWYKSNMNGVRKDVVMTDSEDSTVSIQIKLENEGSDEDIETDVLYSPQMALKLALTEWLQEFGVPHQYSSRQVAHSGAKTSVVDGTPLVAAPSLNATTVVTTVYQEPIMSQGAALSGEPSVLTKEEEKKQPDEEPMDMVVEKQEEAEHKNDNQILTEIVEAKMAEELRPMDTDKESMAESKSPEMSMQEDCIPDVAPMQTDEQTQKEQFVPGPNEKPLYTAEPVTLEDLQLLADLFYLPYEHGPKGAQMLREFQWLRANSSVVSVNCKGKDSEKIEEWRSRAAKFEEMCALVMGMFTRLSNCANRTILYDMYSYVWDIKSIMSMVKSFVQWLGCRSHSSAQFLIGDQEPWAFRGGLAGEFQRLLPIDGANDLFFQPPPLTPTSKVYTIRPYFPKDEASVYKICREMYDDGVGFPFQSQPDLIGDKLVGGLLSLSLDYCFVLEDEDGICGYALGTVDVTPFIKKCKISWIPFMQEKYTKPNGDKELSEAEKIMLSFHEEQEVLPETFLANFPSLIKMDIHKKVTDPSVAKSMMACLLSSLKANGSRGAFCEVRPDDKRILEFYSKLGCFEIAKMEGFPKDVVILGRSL

[2] = Cytotoxicity against human HepG2 cells assessed as cell viability at 50 uM after 48 hrs by MTT assay relative to control; type: cell-based; conditions: read-out: Activity
[3] = Cytotoxicity against human HeLa cells assessed as cell viability at 20 uM after 48 hrs by MTT assay relative to control; type: cell-based; conditions: read-out: Activity
[4] = Cytotoxicity against mouse NIH/3T3 cells assessed as cell viability at 10 uM after 48 hrs by MTT assay relative to control; type: cell-based, NIH3T3; conditions: read-out: Activity
[5] = Cytotoxicity against mouse NIH/3T3 cells assessed as cell viability at 50 uM after 48 hrs by MTT assay relative to control; type: cell-based, NIH3T3; conditions: read-out: Activity
[6] = Cytotoxicity against human MCF7 cells assessed as cell viability at 50 uM after 48 hrs by MTT assay relative to control; type: cell-based; conditions: read-out: Activity
[7] = Cytotoxicity against human HepG2 cells assessed as cell viability at 10 uM after 48 hrs by MTT assay relative to control; type: cell-based; conditions: read-out: Activity
[8] = Cytotoxicity against human HeLa cells assessed as cell viability at 50 uM after 48 hrs by MTT assay relative to control; type: cell-based; conditions: read-out: Activity
[9] = Cytotoxicity against human HepG2 cells assessed as cell viability at 100 uM after 48 hrs by MTT assay relative to control; type: cell-based; conditions: read-out: Activity
[10] = Cytotoxicity against mouse NIH/3T3 cells assessed as cell viability at 20 uM after 48 hrs by MTT assay relative to control; type: cell-based, NIH3T3; conditions: read-out: Activity
[11] = Cytotoxicity against human MCF7 cells assessed as cell viability at 5 uM after 48 hrs by MTT assay relative to control; type: cell-based; conditions: read-out: Activity
[12] = Cytotoxicity against human MCF7 cells assessed as cell viability at 10 uM after 48 hrs by MTT assay relative to control; type: cell-based; conditions: read-out: Activity
Mus musculus = organism: Mus musculus; assay: Modulation of OGT/OGA in mouse NIH/3T3 cells assessed as increase in O-GlcNAcylation at 5 to 100 uM by Western blot analysis; type: cell-based
[13] = Cytotoxicity against human HeLa cells assessed as cell viability at 100 uM after 48 hrs by MTT assay relative to control; type: cell-based; conditions: read-out: Activity
[14] = Cytotoxicity against human HeLa cells assessed as cell viability at 10 uM after 48 hrs by MTT assay relative to control; type: cell-based; conditions: read-out: Activity
[15] = Cytotoxicity against human HeLa cells assessed as cell viability at 5 uM after 48 hrs by MTT assay relative to control; type: cell-based; conditions: read-out: Activity
[16] = Cytotoxicity against human MCF7 cells assessed as cell viability at 100 uM after 48 hrs by MTT assay relative to control; type: cell-based; conditions: read-out: Activity
[17] = Cytotoxicity against mouse NIH/3T3 cells assessed as cell viability at 100 uM after 48 hrs by MTT assay relative to control; type: cell-based, NIH3T3; conditions: read-out: Activity
[18] = Cytotoxicity against human HepG2 cells assessed as cell viability at 5 uM after 48 hrs by MTT assay relative to control; type: cell-based; conditions: read-out: Activity
[19] = Cytotoxicity against mouse NIH/3T3 cells assessed as cell viability at 5 uM after 48 hrs by MTT assay relative to control; type: cell-based, NIH3T3; conditions: read-out: Activity
[20] = Cytotoxicity against human MCF7 cells assessed as cell viability at 20 uM after 48 hrs by MTT assay relative to control; type: cell-based; conditions: read-out: Activity
[21] = Cytotoxicity against human HepG2 cells assessed as cell viability at 20 uM after 48 hrs by MTT assay relative to control; type: cell-based; conditions: read-out: Activity
[22] = Inhibition of lysosomal hexosaminidase (unknown origin); parameters: species or system Homo sapiens

With `CC(=O)OC[C@H]1OC(OC(C)=O)[C@H](NC(=O)C(F)(F)F)[C@@H](OC(C)=O)[C@@H]1OC(C)=O` (stereo not given in full) the inhibition [1] was “Active”, the viability at 48 h, 50 µM [2] was 91.2% and the viability at 48 h, 20 µM [3] was 96%. The viability at 48 h, 10 µM [4] was 94.1%, the viability at 48 h, 50 µM [5] was 61.3% and the viability at 48 h, 50 µM [6] was 96.4%. It also gave a viability at 48 h, 10 µM [7] of 94.7%, a viability at 48 h, 50 µM [8] of 84.1% and a viability at 48 h, 100 µM [9] of 84.9%. For the same compound, the viability at 48 h, 20 µM [10] was 85.6%, the viability at 48 h, 5 µM [11] was 98.3% and the viability at 48 h, 10 µM [12] was 97.4%. The Activity (Mus musculus) was “Active”, the viability at 48 h, 100 µM [13] was 76.1% and the viability at 48 h, 10 µM [14] was 96.2%. It also gave a viability at 48 h, 5 µM [15] of 101%, a viability at 48 h, 100 µM [16] of 90.5% and a viability at 48 h, 100 µM [17] of 35.9%. It also gave a viability at 48 h, 5 µM [18] of 96.9%, a viability at 48 h, 5 µM [19] of 97.6% and a viability at 48 h, 20 µM [20] of 97.1%. It also gave a viability at 48 h, 20 µM [21] of 94.2%.

In the case of `CC(=O)N[C@H]1/C(=N/OC(=O)Nc2ccccc2)O[C@H](CO)[C@@H](O)[C@@H]1O` [PUGNAC], the inhibition [1] is reported as “Active” and the Ki [22] is reported as 0.03 to 0.04 µM.

For `CCNC1=N[C@@H]2[C@@H](O)[C@H](O)[C@@H](CO)O[C@@H]2S1`, the inhibition [1] was “Active”.
